Measured values reported in US20230321251A1, “LIPOSOME FORMULATION CONTAINING ANTIBACTERIAL AGENT” (priority 2020, published 2023).
Values after ≈ are worked out from the molar mass of the structure shown. Values joined by “and” are separate entries in the source; they are usually repeats but may differ in a detail not shown here. Identical values can stand only once.

Legend:
[1] = Plasma concentration of active ingredient after intravenous administration (PK parameters)
Method: (2) Plasma Concentration of Active Ingredient after Administration of Liposome Formulation
1) Animals used: ICR mice were used.
2) Breeding conditions: The mice were allowed to freely take chow and sterilized tap water.
3) Dose and grouping setting: A predetermined dose was intravenously administered. The intravenous dose was 5 mg/kg (n=3).
4) Formulation of dosing solution: The dosing solution was administered as a 5% glucose solution.
5) Administration method: Administration was performed via the tail vein through a syringe with an injection needle.
6) Evaluation item: Blood was collected over time, and the plasma concentration of the compound of the present invention was measured using LC/MS/MS.
7) Parameter analysis: For the plasma concentration of the compound of the present invention, area under the plasma concentration-time curve (AUC), systemic clearance (CLtot), elimination half-life (t½), and steady state distribution volume (Vdss) of the compound of the present invention were calculated by non-compartmental model analysis.

[2] = Tissue distribution test (plasma, liver, kidney, lung); details: ICR mice; for Kidney Concentration / Liver Concentration / Lung Concentration / Plasma Concentration / Kidney Kp / Liver Kp / Lung Kp: iv 5 mg/kg; for concentration at 0.5 h / concentration at 2 h / concentration at 24 h / Kp at 0.5 h / Kp at 2 h / Kp at 24 h: ICR, mouse, in vivo, iv, 5 mg/kg
Method: (3) Tissue Distribution of Active Ingredient after Administration of Liposome Formulation
(Tissue Distribution Test)
The compound of the present invention was intravenously administered at a dose of 5 mg/kg to ICR mice. […] Then, the liver, kidney, and lung were removed, and a 25% homogenate was prepared with distilled water. The obtained blood was centrifuged, and plasma was then obtained. Thereafter, each sample was measured using LC/MS/MS. The concentration value ratio (each tissue/plasma) obtained was used as a tissue Kp value.

S. aureus ATCC700787 = assay: In vitro antibacterial activity (MIC), agar plate dilution; type: cell-based, Staphylococcus aureus
Method: (§1) A minimum inhibitory concentration was measured as in vitro antibacterial activity. The minimum inhibitory concentration (MIC: μg/ml) was measured according to the standard method of Japanese Society of Chemotherapy, by an agar plate dilution method using 1000 cfu/spot as an inoculum amount and a susceptibility disk medium as a test medium.
(§2) In the tables, a unit of a numerical value of inhibitory activity is μg/ml. In addition, in the tables, S. aureus represents Staphylococcus aureus and E. faecalis represents Gram-positive group D streptococci (enterococci) that are resident in a normal bacterial flora of a human intestinal tract, and can be causative bacteria of endocarditis and the like after surgery.

S. aureus VRS1 = assay: as above; type: cell-based, Staphylococcus aureus; details: for minimum inhibitory concentration (MIC): S. aureus VRS1, 1000 cfu/spot
Method: as §1, §2

E. faecalis SR1004 = assay: as above; type: cell-based; details: for minimum inhibitory concentration (MIC): E. faecalis SR1004, 1000 cfu/spot
Method: as §1, §2

E. faecalis SR7914 = assay: as above; type: cell-based; details: for minimum inhibitory concentration (MIC): E. faecalis SR7914, 1000 cfu/spot
Method: as §1, §2

E. faecium SR7940 = assay: as above; type: cell-based; details: for minimum inhibitory concentration (MIC): E. faecium SR7940, 1000 cfu/spot
Method: as §1, §2

E. faecium SRM1101 = assay: as above; type: cell-based
Method: as §1, §2

S. aureus ATCC25923 = assay: as above; type: cell-based, Staphylococcus aureus
Method: as §1, §2

[3] = ICR mice, intravenous 5 mg/kg, plasma
[4] = ICR, mouse, in vivo, iv, 5 mg/kg

## CN[C@H](CC(C)C)C(=O)N[C@H]1C(=O)N[C@@H](CC(N)=O)C(=O)N[C@H]2C(=O)N[C@H]3C(=O)N[C@H](C(=O)N[C@H](C(=O)O)c4cc(O)cc(O)c4-c4cc3ccc4O)[C@H](O[C@H]3C[C@](C)(N)[C@@H](O)[C@H](C)O3)c3ccc(c(Cl)c3)Oc3cc2cc(c3O[C@@H]2O[C@H](CO)[C@@H](O)[C@H](O)[C@H]2O[C@H]2C[C@](C)(NCc3ccc(-c4ccc(Cl)cc4)cc3)[C@@H](O)[C@H](C)O2)Oc2ccc(cc2Cl)[C@H]1O [Oritavancin drug substance, oritavancin]
[1]; [3]
  CL tot: 0.989 ± 0.049 mL/min/kg
  T1/2: 2.2 ± 1.3 h
[2]; 0.5 hour after administration
  Kidney Concentration: 10300 ± 1090 ng/mL
  Liver Concentration: 14800 ± 1230 ng/mL
  Lung Concentration: 15100 ± 563 ng/mL
  Plasma Concentration: 34400 ± 4550 ng/mL
[2]; 2 hours after administration
  Kidney Concentration: 8720 ± 538 ng/mL
  Liver Concentration: 24900 ± 1400 ng/mL
  Lung Concentration: 10100 ± 1010 ng/mL
  Plasma Concentration: 14900 ± 1710 ng/mL
[2]; 24 hours after administration
  Kidney Concentration: 4090 ± 462 ng/mL
  Liver Concentration: 38500 ± 2780 ng/mL
  Lung Concentration: 3790 ± 388 ng/mL
  Plasma Concentration: 63.9 ± 12.0 ng/mL
[2]; kidney/plasma concentration ratio, 0.5 hour
  Kidney Kp: 0.30 ± 0.04
[2]; kidney/plasma concentration ratio, 2 hours
  Kidney Kp: 0.59 ± 0.05
[2]; kidney/plasma concentration ratio, 24 hours
  Kidney Kp: 66.12 ± 17.05
[2]; liver/plasma concentration ratio, 0.5 hour
  Liver Kp: 0.44 ± 0.08
[2]; liver/plasma concentration ratio, 2 hours
  Liver Kp: 1.68 ± 0.10
[2]; liver/plasma concentration ratio, 24 hours
  Liver Kp: 611.35 ± 72.9
[2]; lung/plasma concentration ratio, 0.5 hour
  Lung Kp: 0.44 ± 0.07
[2]; lung/plasma concentration ratio, 2 hours
  Lung Kp: 0.68 ± 0.09
[2]; lung/plasma concentration ratio, 24 hours
  Lung Kp: 61.19 ± 15.12
S. aureus ATCC700787; S. aureus ATCC700787, 1000 cfu/spot
  minimum inhibitory concentration (MIC): 4 µg/mL and 2 µg/mL
S. aureus VRS1
  minimum inhibitory concentration (MIC): 4 µg/mL and 2 µg/mL
E. faecalis SR1004
  minimum inhibitory concentration (MIC): 2 µg/mL and 1 µg/mL
E. faecalis SR7914
  minimum inhibitory concentration (MIC): 2 µg/mL and 1 µg/mL
E. faecium SR7940
  minimum inhibitory concentration (MIC): 2 µg/mL (≈ 1.12 µM)
E. faecium SRM1101; E. faecium SRM1101, 1000 cfu/spot
  minimum inhibitory concentration (MIC): 2 µg/mL and 4 µg/mL

## CCCCCCCCCCNCCN[C@@]1(C)C[C@H](O[C@H]2[C@H](Oc3c4cc5cc3Oc3ccc(cc3Cl)[C@@H](O)[C@@H]3NC(=O)[C@H](NC(=O)[C@@H]5NC(=O)[C@H](CC(N)=O)NC(=O)C(NC(=O)[C@@H](CC(C)C)NC)[C@H](O)c5ccc(c(Cl)c5)O4)c4ccc(O)c(c4)-c4c(cc(O)c(CNCP(=O)(O)O)c4O)[C@@H](C(=O)O)NC3=O)O[C@H](CO)[C@@H](O)[C@@H]2O)O[C@@H](C)[C@H]1O (some centres unmarked) [Telavancin drug substance, telavancin]
[1]; [4]
  AUC(0-inf): 57200 ± 12800 ng·h/mL
  clearance: 1.52 ± 0.32 mL/min/kg
  half-life: 2.7 ± 2.7 h
[2]; Kidney Concentration, 0.5 hour after administration
  concentration at 0.5 h: 19000 ± 4110 ng/mL
[2]; Kidney Concentration, 2 hours after administration
  concentration at 2 h: 12700 ± 2470 ng/mL
[2]; Kidney Concentration, 24 hours after administration
  concentration at 24 h: 5930 ± 1600 ng/mL
[2]; Kidney Kp, kidney/plasma concentration ratio, 0.5 hour
  Kp at 0.5 h: 1.05 ± 0.23
[2]; Kidney Kp, kidney/plasma concentration ratio, 2 hours
  Kp at 2 h: 1.64 ± 0.12
[2]; Kidney Kp, kidney/plasma concentration ratio, 24 hours
  Kp at 24 h: 49.9
[2]; Liver Concentration, 0.5 hour after administration
  concentration at 0.5 h: 3780 ± 201 ng/mL
[2]; Liver Concentration, 2 hours after administration
  concentration at 2 h: 4050 ± 256 ng/mL
[2]; Liver Concentration, 24 hours after administration
  concentration at 24 h: 2340 ± 465 ng/mL
[2]; Liver Kp, liver/plasma concentration ratio, 0.5 hour
  Kp at 0.5 h: 0.21 ± 0.01
[2]; Liver Kp, liver/plasma concentration ratio, 2 hours
  Kp at 2 h: 0.53 ± 0.05
[2]; Liver Kp, liver/plasma concentration ratio, 24 hours
  Kp at 24 h: 17.2
[2]; Lung Concentration, 0.5 hour after administration
  concentration at 0.5 h: 5860 ± 208 ng/mL
[2]; Lung Concentration, 2 hours after administration
  concentration at 2 h: 2820 ± 162 ng/mL
[2]; Lung Concentration, 24 hours after administration
  concentration at 24 h: 736 ± 158 ng/mL
[2]; Lung Kp, lung/plasma concentration ratio, 0.5 hour
  Kp at 0.5 h: 0.32 ± 0.03
[2]; Lung Kp, lung/plasma concentration ratio, 2 hours
  Kp at 2 h: 0.37 ± 0.04
[2]; Lung Kp, lung/plasma concentration ratio, 24 hours
  Kp at 24 h: 5.75
[2]; Plasma Concentration, 0.5 hour after administration
  concentration at 0.5 h: 18200 ± 627 ng/mL
[2]; Plasma Concentration, 2 hours after administration
  concentration at 2 h: 7700 ± 977 ng/mL
[2]; Plasma Concentration, 24 hours after administration
  concentration at 24 h: 51.9 ± 89.9 ng/mL
S. aureus ATCC25923; S. aureus ATCC25923, 1000 cfu/spot
  minimum inhibitory concentration (MIC): 0.25 µg/mL (≈ 0.142 µM)
S. aureus ATCC25923; Staphylococcus aureus, ATCC25923, read-out: minimum inhibitory concentration (MIC), S. aureus ATCC25923, 1000 cfu/spot
  MIC: 0.5 µg/mL (≈ 0.285 µM)
S. aureus ATCC700787; Staphylococcus aureus, ATCC700787, read-out: minimum inhibitory concentration (MIC)
  MIC: 1 µg/mL (≈ 0.57 µM)
S. aureus VRS1
  minimum inhibitory concentration (MIC): 2 µg/mL (≈ 1.14 µM)
S. aureus VRS1; Staphylococcus aureus, VRS1, read-out: minimum inhibitory concentration (MIC), S. aureus VRS1, 1000 cfu/spot
  MIC: 4 µg/mL (≈ 2.28 µM)
E. faecalis SR1004
  minimum inhibitory concentration (MIC): 0.5 µg/mL (≈ 0.285 µM)
E. faecalis SR1004; Enterococcus faecalis, SR1004, read-out: minimum inhibitory concentration (MIC), E. faecalis SR1004, 1000 cfu/spot
  MIC: 1 µg/mL (≈ 0.57 µM)
E. faecalis SR7914
  minimum inhibitory concentration (MIC): 2 µg/mL (≈ 1.14 µM)
E. faecalis SR7914; Enterococcus faecalis, SR7914, read-out: minimum inhibitory concentration (MIC), E. faecalis SR7914, 1000 cfu/spot
  MIC: 4 µg/mL (≈ 2.28 µM)
E. faecium SR7940
  minimum inhibitory concentration (MIC): 2 µg/mL (≈ 1.14 µM)
E. faecium SR7940; Enterococcus faecium, SR7940, read-out: minimum inhibitory concentration (MIC), E. faecium SR7940, 1000 cfu/spot
  MIC: 4 µg/mL (≈ 2.28 µM)
E. faecium SRM1101; Enterococcus faecium, SRM1101, read-out: minimum inhibitory concentration (MIC)
  MIC: 4 µg/mL (≈ 2.28 µM)
